Assay results reported in US11773078B2, “Furin inhibitors” (Glaxosmithkline Intellectual Property Development Limited, priority 2018, dated 2023).

Tests used:
[1] = molecular target: T1, Furin (108-574-Tev-Flag-His) enzyme (Homo sapiens, UniProt P09958); assay: Furin enzyme assay; type: biochemical
T1 construct: Furin (108-574-Tev-Flag-His) enzyme was expressed and purified from CHO cells; TEV cleavage site (C); FLAG (C); His (C); made in house; host or cells: CHO cells
Outline: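 Compounds ran as 11-point threefold dilutions (0.00017–10 μM final) against 40 pM furin, purified from CHO cells, for 2 h at room temperature. Buffer: 100 mM HEPES pH7.5 with 1 mM CaCl2 and 0.005% Triton X-100. Envision readout. Four-parameter curve gives pXC50.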

[2] = molecular target: T2, furin (endogenous protease) in U20S cells (Homo sapiens, UniProt P09958); assay: Furin cell-based assay (image-based, Golgi-targeted GFP with BMP10 furin/PCSK cleavage site); settings: 24-hour incubation, read-out: furin golgi cell pXC50 (converted);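 further: Read-out is mean GFP fluorescence of Golgi puncta per cell by high-content imaging, retained when furin inhibited, over an eleven-point 0.00017–10 µM series, four-parameter fit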
T2 construct: the endogenous protease cleaves GFP; endogenous in cells; host or cells: U2OS cells transduced with a BacMam reporter
T2 sequence (P09958 108-794): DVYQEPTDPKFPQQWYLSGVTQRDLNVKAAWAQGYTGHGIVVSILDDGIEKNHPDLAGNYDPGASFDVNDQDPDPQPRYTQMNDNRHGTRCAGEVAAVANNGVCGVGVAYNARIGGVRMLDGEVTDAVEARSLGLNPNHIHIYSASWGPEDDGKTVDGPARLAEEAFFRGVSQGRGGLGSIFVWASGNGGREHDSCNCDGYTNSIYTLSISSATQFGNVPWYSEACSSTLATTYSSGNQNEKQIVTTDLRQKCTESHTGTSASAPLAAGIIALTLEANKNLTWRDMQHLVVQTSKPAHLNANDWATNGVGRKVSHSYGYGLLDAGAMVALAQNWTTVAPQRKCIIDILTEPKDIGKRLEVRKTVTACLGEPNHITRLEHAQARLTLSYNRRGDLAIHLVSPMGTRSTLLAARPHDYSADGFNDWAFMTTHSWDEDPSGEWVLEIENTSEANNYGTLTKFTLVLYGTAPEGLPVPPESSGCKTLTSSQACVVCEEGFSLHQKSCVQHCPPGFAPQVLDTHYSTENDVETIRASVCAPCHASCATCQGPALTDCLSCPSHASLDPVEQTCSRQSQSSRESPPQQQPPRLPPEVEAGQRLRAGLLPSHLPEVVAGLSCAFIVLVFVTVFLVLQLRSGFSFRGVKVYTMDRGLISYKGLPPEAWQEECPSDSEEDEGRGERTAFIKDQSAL

T1 sequence (P09958 108-574): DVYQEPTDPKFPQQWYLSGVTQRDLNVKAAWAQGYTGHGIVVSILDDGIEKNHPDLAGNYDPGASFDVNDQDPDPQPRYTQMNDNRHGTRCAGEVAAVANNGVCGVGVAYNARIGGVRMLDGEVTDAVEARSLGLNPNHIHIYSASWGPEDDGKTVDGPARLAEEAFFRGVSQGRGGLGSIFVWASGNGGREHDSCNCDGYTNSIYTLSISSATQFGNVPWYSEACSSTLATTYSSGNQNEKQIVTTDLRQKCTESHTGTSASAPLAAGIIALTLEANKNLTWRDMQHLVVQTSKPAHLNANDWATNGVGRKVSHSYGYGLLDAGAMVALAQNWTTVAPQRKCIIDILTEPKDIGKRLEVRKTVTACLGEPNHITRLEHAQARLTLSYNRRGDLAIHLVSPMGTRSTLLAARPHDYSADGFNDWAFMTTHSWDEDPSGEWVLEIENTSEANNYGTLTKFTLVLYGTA

Compound	furin enzyme pIC50 [1]	EC50 [2] [nM]
C[C@@H](CC1CCN(Cc2cc(Oc3cnc(N4CCN(C)CC4)nc3)nc(-c3cc(Cl)cc(Cl)c3)c2)CC1)C(=O)O [Example 134]	9.5	25.1
CN1CCN(c2ncc(Oc3cc(CN4CCC5(CC4)CN(C(=O)CO)C5)cc(-c4cc(Cl)cc(Cl)c4)n3)cn2)CC1 [Example 135, 1-(7-((2-(3,5-dichlorophenyl)-6-((2-(4-methylpiperazin-1-yl)pyrimidin-5-yl)oxy)pyridin-4-yl)methyl)-2,7-diazaspiro[3.5]nonan-2-yl)-2-hydroxyethanone]	9.2	10
CN1CCN(c2ccc(Oc3cc(CN4CC[C@@H]5[C@H](CC4)[C@H]5C(=O)O)cc(-c4cc(Cl)cc(Cl)c4)n3)cn2)CC1 [Example 136, (1R,7S,8r)-4-((2-(3,5-dichlorophenyl)-6-((6-(4-methylpiperazin-1-yl)pyridin-3-yl)oxy)pyridin-4-yl)methyl)-4-azabicyclo[5.1.0]octane-8-carboxylic acid]	9.8	15.8
CC(O)CC1CCN(Cc2cc(Oc3cnc(N4CCN(C)CC4)nc3)nc(-c3cc(Cl)cc(Cl)c3)c2)CC1 (centres unmarked) [Example 138, 1-(1-((2-(3,5-dichlorophenyl)-6-((2-(4-methylpiperazin-1-yl)pyrimidin-5-yl)oxy)pyridin-4-yl)methyl)piperidin-4-yl)propan-2-ol]	9.1	7.94
CN1CCN(c2ncc(Oc3cc(CN4CCC(CC(O)C(=O)O)CC4)cc(-c4cc(Cl)cc(Cl)c4)n3)cn2)CC1 (centres unmarked) [Example 139, 3-(1-((2-(3,5-dichlorophenyl)-6-((2-(4-methylpiperazin-1-yl)pyrimidin-5-yl)oxy)pyridin-4-yl)methyl)piperidin-4-yl)-2-hydroxypropanoic acid]	9.3	10

Continued, values first:

furin enzyme pIC50 [1]	EC50 [2] [nM]	Compound
8.8	7.94	CN1CCCN(c2ncc(Oc3cc(CN4CCC(OCC(=O)O)CC4)cc(-c4cc(Cl)cc(Cl)c4)n3)cn2)CC1 [Example 140, 2-((1-((2-(3,5-dichlorophenyl)-6-((2-(4-methyl-1,4-diazepan-1-yl)pyrimidin-5-yl)oxy)pyridin-4-yl)methyl)piperidin-4-yl)oxy)acetic acid]
8.6	5.01	CN1CCN(c2ccc(Oc3cc(CN4CCC5(CC4)CNC(=O)OC5)cc(-c4cc(Cl)cc(Cl)c4)n3)cn2)CC1 [Example 141, 9-((2-(3,5-dichlorophenyl)-6-((6-(4-methylpiperazin-1-yl)pyridin-3-yl)oxy)pyridin-4-yl)methyl)-2-oxa-4,9-diazaspiro[5.5]undecan-3-one]
8.8	6.31	CN1CCN(c2ncc(Oc3cc(CN4CCC(CC(N)=O)CC4)cc(-c4cc(Cl)cc(Cl)c4)n3)cn2)CC1 [Example 142, 2-(1-((2-(3,5-dichlorophenyl)-6-((2-(4-methylpiperazin-1-yl)pyrimidin-5-yl)oxy)pyridin-4-yl)methyl)piperidin-4-yl)acetamide]
8.4	20	CN1CCN(c2ncc(Oc3cc(CN4CCC(OC5(C(=O)O)CC5)CC4)cc(-c4cc(Cl)cc(Cl)c4)n3)cn2)CC1 [Example 143, 1-((1-((2-(3,5-dichlorophenyl)-6-((2-(4-methylpiperazin-1-yl)pyrimidin-5-yl)oxy)pyridin-4-yl)methyl)piperidin-4-yl)oxy)cyclopropanecarboxylic acid]
8.5	7.94	COC1CN(C)CCN(c2ncc(Oc3cc(CN4CCC(CC(=O)O)CC4)cc(-c4cc(Cl)cc(Cl)c4)n3)cn2)C1 (centres unmarked) [Example 144, 2-(1-((2-(3,5-dichlorophenyl)-6-((2-(6-methoxy-4-methyl-1,4-diazepan-1-yl)pyrimidin-5-yl)oxy)pyridin-4-yl)methyl)piperidin-4-yl)acetic acid]
